Measurements taken from paper PMC7938888, “Antidepressant drugs act by directly binding to TRKB neurotrophin receptors” (Cell, 2021).
Where “and” joins values, the source holds several entries; their conditions need not be identical. Identical values can stand only once. Like-named read-outs stand apart in the source and are kept apart here.

Assays:
mice [1] = assay: Contextual fear conditioning and extinction; format: in vivo, mouse
Protocol: Contextual fear conditioning: this test was modified from previous studies ([Karpova et al., 2011]). Briefly, adult male and female mice (18-22 weeks old) were conditioned to 5 scrambled foot shocks (0.6mA/2 s) during the 8 min session (arena: 23 × 23 × 35cm) under constant illumination (100 lux). During the extinction trials, the animals were exposed to the same context where the shocks were delivered and the time spent in freezing during the 8 min session was automatically determined by the software (TSE Systems, Germany).

mice [2] = assay: Forced swimming test (FST); format: in vivo, mouse; settings: FLX 15 mg/kg for 21 days, KET 10 mg/kg i.p. 2 h before
Protocol: Forced swimming test: animals (adult male and female mice, 18-22 weeks old) were placed in 5l glass beaker cylinders (19cm diameter, with 20cm water column) for 6min. The immobility was assessed in the last 4min of the session ([Diniz et al., 2018]). The water was changed between each test. After swimming, animals were towel-dried and kept in a warmed cage before returning to their home cages. Test was videotaped and analyzed by a trained observer blind to treatment.

pTRKB.Y816 = format: cell-based, rat; settings: 10 μM/15 min
Protocol: (§1) The TRKB:pY (phosphorylated TRKB), TRKB:PLC-γ1, PLC-γ1:pTRKB.Y816 interactions and were determined by ELISA, based on the general method described in literature ([Antila et al., 2014]; [Fred et al., 2019]), with minor adjustments. Briefly, white 96-well plates (OptiPlate 96F-HB, Perkin Elmer) were coated with capturing anti-TRKB or PLC-γ1 antibody (1:1000) in carbonate buffer (pH = 9.8) overnight (ON) at 4°C. Following a blocking step with 2%BSA in TBS-T (2 h, RT), samples were incubated ON at 4°C. The incubation with antibody against pTRKB.Y816, PLC-γ1 or pY (1:2000, ON, 4°C) was followed by HRP-conjugated anti-Rb IgG (1:5000, 2h, RT) or HRP-conjugated streptavidin (1:10000, 2h, RT). Finally, the chemiluminescent signal generated by the reaction with ECL was analyzed in a plate reader (Varioskan Flash, Thermo Scientific).
The levels of total and phosphorylated TRKB at Y515 or Y816 in MG87.TRKB cells, challenged with BDNF, as well as the levels of PLCg1 and pTRKB.Y816 were measured by western-blotting ([Rantamäki et al., 2007]).

TRKB = TRKB (Mus musculus, UniProt P15209); assay: Cell-free ligand binding assay on immobilised TRKB from HEK293T lysates; design: wild-type GFP-tagged full length TRKB or the GFP-tagged Y433F TRKB mutant; host or cells: HEK293T; settings: for displacement of biotinylated FLX from TRKB: biotinylated FLX 1 μM
TRKB:PLC-γ1 interaction = TRKB:PLC-γ1 interaction ELISA in cortical cells; format: cell-based, rat; settings: rat cortical cells
Procedure, shortened: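 Sandwich ELISA on cultured cortical cell lysates: plates coated with anti-TRKB or anti-PLC-γ1 capture antibody, samples bound overnight at 4°C, then detected with anti-pY or anti-PLC-γ1 antibody plus HRP-conjugated secondary or streptavidin. Read-out is ECL chemiluminescence.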

E18 cortical cells = assay: Cell viability (CellTiterGlo) of cortical cells; format: cell-based, rat; settings: pravastatin 2 μM/5 days; CHOL 20 μM or BDNF 10 ng/ml, 5 days
Protocol: The cell viability assay was performed using CellTiterGlo (#G7571; Promega) according to manufacturer’s instructions. Briefly, equal amounts of medium and the mixture of regents A and B were added to the E18 cortical cells (DIV8) cultivated in clear bottom 96-well plates and incubated for 40min. The luminescence was analyzed in a plate reader.

TRKA:PLC-γ1 coupling = assay: TRKA:PLC-γ1 interaction ELISA in MG87 cells expressing TRKA; format: cell-based, mouse
[3] = system: TRKB autophosphorylation (TRKB:pY); assay: TRKB:pY ELISA in cultured cortical cells; format: cell-based, rat; settings: for effect on TRKB phosphorylation (pTRKB) by BDNF: BDNF 10 ng/mL, primary cortical neurons
Protocol: as §1

GFP-TRKB = target: T1, GFP-TRKB (Mus musculus, UniProt P15209); assay: Microscale thermophoresis (MST) in lysates of GFP-TRKB expressing HEK293T cells; format: binding; settings: CHOL 10–100 μM, 15 min, HEK293T cell lysates; read-out: affinity of direct interaction with GFP-TRKB (MST)
T1 construct: wild-type GFP-tagged full length TRKB or the GFP-tagged Y433F TRKB mutant; host or cells: HEK293T
Protocol: Microscale Thermophoresis - MST - experiments were performed using Monolith NT.115 (Blue/Red) instrument (NanoTemper Technologies GmbH, Germany). The cell lysates of HEK293T cells expressing GFP-TRKB were used as a source of fluorescently labeled TRKB. HEK293T cells were transfected with GFP-fused TRKB as described and lysed 24h after transfection. […] The lysates of non-transfected HEK293T cells were used to evaluate background fluorescence, which appeared to be undetectable in current MST set up. […] The measurements were done in premium coated capillaries (NanoTemper Technologies GmbH, MO-K025) using LED source with 470nm and 50% infrared-laser power at 25°C. Hill model was used to evaluate binding affinity, each data point represents mean ΔFnorm values from four independent experiments. The bound fraction of the GFP-TRKB was determined and the fitting was performed using the Hill model method incorporated by the MO Affinity Analysis v2.3 software (NanoTemper Technologies).

[4] = prefrontal cortex, individual mice; for FLX uM**: fluoxetine MW 309g/mol
TRKB.Y433F = target: T2, TRKB.Y433F (Mus musculus, UniProt P15209, Y433F); assay: Cell-free ligand binding assay, TRKB.Y433F mutant; settings: TRKB.Y433F; read-out: binding affinity of BDNF
T2 construct: wild-type GFP-tagged full length TRKB or the GFP-tagged Y433F TRKB mutant; host or cells: HEK293T
Protocol: The cell-free assays (binding assays) were performed in white 96-well plates, based on the protocol used for western-blotting or ELISA ([Baeza-Raja et al., 2016]; [Das et al., 2015]). The plates were precoated with anti-GFP, anti-FLAG, anti-TRK or anti-TRKB antibody (1:1000) in carbonate buffer (pH 9.8), ON at 4°C. Following blocking with 3% BSA in PBS buffer (2 h at RT), 120 ug of total protein from each sample (of lysates from HEK293T cells transfected to overexpress GFP-TRKB.wt or GFP-TRKB.Y433F) were added and incubated overnight at 4°C under agitation. […] The luminescence was determined via HRP-conjugated streptavidin (1:10000, 1h, RT) activity reaction with ECL by a plate reader. The luminescence signal from blank wells (containing all the reagents but the sample lystates, substituted by the blocking buffer) was used as background. The specific signal was then calculated by subtracting the values of blank wells from the values of the samples with matched concentration of the biotinylated ligand. For Figure 2E, the precipitated TRKB.wt or Y433F was incubated with tritiated imipramine (0-30μM) and the radioactive emission of the ligand was determined by scintillation (OptiPhase Supermix cocktail: #1200-439; MicroBeta2, Perkin-Elmer). The scintillation signal from blank wells was used as background, and the specific signal was then calculated by subtracting the values of blank wells from the values of the samples with matched concentration of the radioactive ligand.

[5] = wild-type mice, FLX 15 mg/kg for 2 weeks, KET 10 mg/kg i.p. after conditioning and 2 h before each extinction trial

TRKB, sequence (P15209 32-821): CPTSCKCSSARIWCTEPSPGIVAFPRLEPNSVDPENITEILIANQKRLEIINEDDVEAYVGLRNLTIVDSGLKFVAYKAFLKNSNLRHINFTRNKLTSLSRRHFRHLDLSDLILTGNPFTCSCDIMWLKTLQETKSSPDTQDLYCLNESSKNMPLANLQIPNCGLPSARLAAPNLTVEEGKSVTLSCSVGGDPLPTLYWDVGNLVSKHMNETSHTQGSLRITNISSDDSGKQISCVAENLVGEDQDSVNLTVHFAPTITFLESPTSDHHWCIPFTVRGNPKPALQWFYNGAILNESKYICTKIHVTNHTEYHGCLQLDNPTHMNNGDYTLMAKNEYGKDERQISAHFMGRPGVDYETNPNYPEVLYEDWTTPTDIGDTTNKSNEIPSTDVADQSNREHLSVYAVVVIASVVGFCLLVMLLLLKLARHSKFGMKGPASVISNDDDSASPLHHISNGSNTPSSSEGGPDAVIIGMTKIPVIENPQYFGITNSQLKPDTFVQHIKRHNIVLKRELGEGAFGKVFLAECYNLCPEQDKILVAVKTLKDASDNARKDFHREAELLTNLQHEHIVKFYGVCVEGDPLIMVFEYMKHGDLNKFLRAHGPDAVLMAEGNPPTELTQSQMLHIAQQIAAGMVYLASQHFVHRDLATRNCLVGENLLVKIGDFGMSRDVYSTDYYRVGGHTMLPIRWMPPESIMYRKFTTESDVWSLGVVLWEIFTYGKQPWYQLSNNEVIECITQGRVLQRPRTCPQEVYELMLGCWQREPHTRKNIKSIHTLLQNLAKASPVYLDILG
T1 sequence (P15209 32-821): as above
T2 sequence (P15209 32-821 Y433F): as the sequence (P15209 32-821) above, with Y402F counted along it

With `CNC1(c2ccccc2Cl)CCCCC1=O` (stereo not shown) [KET, ketamine] the “extinction of conditioned fear” value (mice [1]; TRKB.Y433F mice) was “no increase in fear extinction”, the “extinction of conditioned fear” value (mice [1]; [5]) was “promoted extinction of conditioned fear” and the “immobility in the FST” value (mice [2]; TRKB.Y433F mice) was “ineffective”. The “immobility in the FST” value (mice [2]; wild-type mice) was “significantly reduced immobility”, the “pTRKB at Y816” value (pTRKB.Y816) was “enhanced pTRKB at Y816” and the Ki (TRKB) was 12.3 µM. For the same molecule, the “displacement of biotinylated FLX from TRKB” value (TRKB) was “readily displaced” and the “TRKB interaction with PLC-γ1” value (TRKB:PLC-γ1 interaction) was “increased TRKB interaction with PLC-γ1”.

For `CC(C)CCC[C@@H](C)[C@H]1CC[C@H]2[C@@H]3CC=C4C[C@@H](O)CC[C@]4(C)[C@H]3CC[C@]12C` [CHOL, cholesterol], the “rescue of pravastatin-reduced neuronal survival” value (E18 cortical cells) was “rescued”, the “cholesterol-induced TRKA:PLC-γ1 coupling” value (TRKA:PLC-γ1 coupling) was “Lack of effect” and the “effect on interaction of biotinylated FLX and R,R-HNK with TRKB” value (TRKB) was “increased the interaction of these compounds with TRKB”. The “effect on TRKB phosphorylation (pTRKB) by BDNF” value ([3]; CHOL 20 μM) was “enhanced TRKB phosphorylation”, the “effect on TRKB phosphorylation (pTRKB) by BDNF” value ([3]; CHOL 50–100 μM) was “suppressed the effects of BDNF” and the Kd (GFP-TRKB) was about 20 µM.

For `CNCCC(Oc1ccc(C(F)(F)F)cc1)c1ccccc1` (stereo not shown) [FLX, fluoxetine], the “extinction of conditioned fear” value (mice [1]; TRKB.Y433F mice) was “no increase in fear extinction”, the “extinction of conditioned fear” value (mice [1]; pravastatin-FLX co-treated mice) was “no increase in fear extinction” and the “extinction of conditioned fear” value (mice [1]; [5]) was “promoted extinction of conditioned fear”. The FLX ([4]; genotype het, 15mg/kg in drinking water 21 days, 15 mg/kg) was 1.368 µg/mL and 0.379 µg/mL and 2.739 µg/mL, the “FLX” value ([4]; genotype het, brain density 1.045g/ml) was 9.69 µg/mL and 6.28 µg/mL and 21.21 µg/mL and the “FLX uM**” value ([4]; genotype het) was 31.36 µM and 20.34 µM and 68.63 µM. For the same molecule, the “FLX ug/g wet tissue” value ([4]; genotype het) was 9.273 ug/g wet tissue and 6.013 ug/g wet tissue and 20.292 ug/g wet tissue, the FLX ([4]; genotype wt, 15mg/kg in drinking water 21 days, 15 mg/kg) was 1.575 µg/mL and 1.642 µg/mL and 1.024 µg/mL and 1.497 µg/mL and 0.393 µg/mL and the “FLX” value ([4]; genotype wt, brain density 1.045g/ml) was 4.03 µg/mL and 11.14 µg/mL and 6.93 µg/mL and 10.29 µg/mL and 9.31 µg/mL. For the same molecule, the “FLX uM**” value ([4]; genotype wt) was 13.04 µM and 36.06 µM and 22.42 µM and 33.30 µM and 30.13 µM, the “FLX ug/g wet tissue” value ([4]; genotype wt) was 3.856 ug/g wet tissue and 10.662 ug/g wet tissue and 6.629 ug/g wet tissue and 9.846 ug/g wet tissue and 8.908 ug/g wet tissue and the “immobility in the FST” value (mice [2]; TRKB.Y433F mice) was “ineffective”. For the same molecule, the “immobility in the FST” value (mice [2]; wild-type mice) was “significantly reduced immobility”, the “pTRKB at Y816” value (pTRKB.Y816) was “enhanced pTRKB at Y816” and the “rescue of BDNF-induced pTRKB response under high CHOL” value ([3]; cholesterol 50 μM, drug 10 μM 15 min, BDNF 10 ng/ml 15 min) was “partially rescued”. For the same molecule, the “TRKB interaction with PLC-γ1” value (TRKB:PLC-γ1 interaction) was “increased TRKB interaction with PLC-γ1”.

B1: BDNF: brain-derived neurotrophic factor, TRKB ligand (protein, UniProt P23560 19-247, looked up)
Neurotrophic factor BDNF …: APMKEANIRGQGGLAYPGVRTHGTLESVNGPKAGSRGLTSLADTFEHVIEELLDEDQKVRPNEENNKDADLYTSRVMLSSQVPLEPPLLFLLEEYKNYLDAANMSMRVRRHSDPARRGELSVCDSISEWVTAADKKTAVDMSGGTVTVLEKVPVSKGQLKQYFYETKCNPMGYTKEGCRGIDKRHWNSQCRTTQSYVRALTMDSKKRIGWRFIRIDTSCVCTLTIKRGR
With B1 the “rescue of pravastatin-reduced neuronal survival” value (E18 cortical cells) was “not by BDNF”, the Kd (TRKB.Y433F) was 2.9 pM and the Kd (TRKB; TRKB.wt, read-out: binding affinity of BDNF) was 3.1 pM. For the same molecule, the “displacement of biotinylated FLX from TRKB” value (TRKB) was “failed to displace”.
